System: MCF7 xenograft tumors
Experiment: MCF7 xenograft tumor study after estrogen pellet removal
Format: in vivo, mice
Procedure: Xenograft tumor analysis: Estrogen-stimulated MCF7 tumors were initiated in the axial mammary gland of 6-week old estrogen-treated (0.72 mg/60 days pellet sc, Innovative Research of America) ovariectomized female NU/NU mice (in-house colony) by serial transfer and were measured as described (Wardell et al., (2013) Clin Cancer Res 19 (9):2420-2431). […] FIG. 9: At ˜0.1 cm^3 tumor volume, the estrogen pellet was surgically removed, and mice were randomized (n=6-10) to daily treatment with vehicle or RAD1901 (0.3-10 mg/kg). Treatments were formulated as above. Animal tissues were processed and analyzed as described (Wardell et al., (2013) Clin Cancer Res 19 (9):2420-2431).
As shown above, high dose RAD1901 (20 mg/kg) inhibited the growth of ESR1-dependent MCF7-cell derived tumors in mice. However, the observation that uterine wet weight was increased in mice treated with doses of RAD1901 that were lower than that required to effect ESR1 turnover highlighted the need to examine whether a similar biphasic pharmacology was manifest in breast tumors. To further evaluate the pharmacology of RAD1901, a second xenograft tumor study was conducted in which MCF7 tumors were established under estrogen stimulation. For FIG. 9A, MCF7 xenograft tumors were initiated in ovariectomized female nu/nu mice as in FIG. 5. Estrogen pellets were surgically removed when tumors reached ˜0.1 cm^3 volume, and animals (n=6-10) then received daily treatment with vehicle or RAD1901 (RAD), (0.3-10 mg/kg sc). Mean tumor volume+/−SEM per day of treatment was presented. Significance as compared to the vehicle (2-way ANOVA of matched values followed by Bonferroni comparison) was indicated (*p<0.05, **p<0.0005). For FIG. 9B, uterine wet weight at sacrifice (measured as in FIG. 8) and % change in tumor volume (as compared to size at randomization) calculated using the final measurement recorded for mice in (FIG. 9A) are graphically presented. For FIGS. 9C-9D, expression of ESR1 target genes in tumors was analyzed essentially as in FIG. 5. Estrogen only samples from FIG. 5D were included for comparison. For FIG. 9E, ESR1 levels in tumor tissues were analyzed as in FIG. 8 and were normalized to similarly detected Lamin-A. Significant downregulation (*p<0.05) was determined by ANOVA followed by Bonferroni comparison.

## CCNCCc1ccc(CN(CC)c2cc(OC)ccc2[C@@H]2CCc3cc(O)ccc3C2)cc1 [RAD1901, (R)-6-{2-{ethyl[4-(2-ethylaminoethyl)benzyl]amino}-4-methoxyphenyl}-5,6,7,8-tetrahydronaphthalen-2-ol]
0.3-10 mg/kg
  ESR1 levels in tumor extracts (immunoblot): dose-dependent downregulation
1 or 3 mg/kg groups
  final tumor size: significantly increased
1 or 3 mg/kg sc daily
  tumor growth after estrogen withdrawal: significant stimulation of tumor growth
1 or 3 mg/kg treatment groups
  expression of AGR2 in tumors: observed
  expression of classical ESR1 target genes such as PGR in tumors: not observed
Higher dose (10 mg/kg) sc daily
  tumor growth after estrogen withdrawal: not apparent at the higher dose
nu/nu mice, 0.3-10 mg/kg sc daily
  uterine wet weight at sacrifice: stimulation of uterine weight was apparent in mice treated with only the 0.3 mg/kg dose

Source: patent US10420734B2, “Method of treating cancer using selective estrogen receptor modulators” (Duke University, priority 2014, dated 2019)
